This is an account of results in US20220202963A1, “RADIOLABELED COMPOUNDS” (Hoffmann-La Roche Inc., priority 2019, published 2022).

In test [1] the target is T1, MAGL (Mus musculus, UniProt O35678).
T1 sequence (O35678 1-303): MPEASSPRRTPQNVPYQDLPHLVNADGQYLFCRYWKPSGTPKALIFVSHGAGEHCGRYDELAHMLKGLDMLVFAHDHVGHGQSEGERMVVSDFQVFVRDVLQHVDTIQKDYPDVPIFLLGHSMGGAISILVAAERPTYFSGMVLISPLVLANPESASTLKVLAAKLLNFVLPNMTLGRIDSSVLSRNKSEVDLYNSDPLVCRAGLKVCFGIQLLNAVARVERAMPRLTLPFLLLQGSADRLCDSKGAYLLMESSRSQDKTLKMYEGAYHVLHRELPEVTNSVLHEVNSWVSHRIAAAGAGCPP
As to the kind of experiment: In vitro autoradiography of 3H ligands on sagittal mouse brain sections (MAGL WT and ko). As to conditions: 1 nM radioligand, 30 min; for binding on wt tissue samples (autoradiography): MAGL WT mouse brain sections; for binding on MAGL ko tissue sections (autoradiography; selectivity, non-specific binding): MAGL ko mouse brain sections.
Experimental: Receptor autoradiography was performed on sagittal sections of fresh-frozen brains from MAGL WT and ko mice (C57BL6/6NTac-Mgllem4993_02Tac). Tissue sections (10 μm) from brain specimens were cut in a cryostat (Leica CM3050) at −17° C. chamber temperature and −15° C. object temperature and thaw-mounted on microscope glass slides (HistoBond, Paul Marienfeld GmbH, Lauda-Königshofen, Germany). Brain sections were incubated for 30 min in 50 mM Tris-HCl buffer pH 7.4 with 0.1% BSA at RT containing 1 nM of the radioligand. Sections were rinsed three times for 10 min in ice-cold 50 mM Tris-HCl buffer, followed by three dips into ice-cold H2O and air-dried at 4° C. before being exposed to tritium-sensitive imaging plates (BAS-IP TR2025, Fujifilm, Dielsdorf, Switzerland) with a tritium microscale for 5 days at RT. The imaging plates were scanned with a high-resolution phosphor imager (Fuji BAS-5000, Bucher Biotec AG, Basel, Switzerland) and the binding intensity for selected brain areas was quantified using an MCID M2 image analysis software (version 7; InterFocus Imaging GmbH, Mering, Germany).

For test [2], the target named is T2, MAGL (Homo sapiens, UniProt Q99685).
T2 sequence (Q99685 1-303): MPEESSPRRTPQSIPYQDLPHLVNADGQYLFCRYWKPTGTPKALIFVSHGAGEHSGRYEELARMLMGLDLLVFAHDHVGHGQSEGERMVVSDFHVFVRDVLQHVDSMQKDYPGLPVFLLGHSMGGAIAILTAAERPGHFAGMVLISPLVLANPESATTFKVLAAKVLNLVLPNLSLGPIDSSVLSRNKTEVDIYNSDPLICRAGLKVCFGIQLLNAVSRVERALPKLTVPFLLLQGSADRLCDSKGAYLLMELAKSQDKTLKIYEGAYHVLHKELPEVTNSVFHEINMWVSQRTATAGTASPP
As to the kind of experiment: 2-AG assay (MAGL inhibitory activity, hydrolysis of 2-arachidonoylglycerol followed by mass spectrometry). To be noted: 50 pM MAGL, 8 μM 2-arachidonoylglycerol, 15 min pre-incubation, 30 min at RT. In kind it is biochemical. On the procedure:
Compounds were profiled for MAGL inhibitory activity by determining the enzymatic activity by following the hydrolysis of the natural substrate, 2-arachidonoylglycerol, resulting in arachidonic acid, which can be followed by mass spectrometry. This assay is hereinafter abbreviated “2-AG assay”.
A C18 SPE cartridge (G9205A) was used in an acetonitrile/water liquid setup. […] The activity of the compounds was calculated based on the ratio of intensities [arachidonic acid/d8-arachidonic acid].

Test [3] deals with T3, MAGL (Rattus norvegicus, UniProt Q8R431).
T3 sequence (Q8R431 1-303): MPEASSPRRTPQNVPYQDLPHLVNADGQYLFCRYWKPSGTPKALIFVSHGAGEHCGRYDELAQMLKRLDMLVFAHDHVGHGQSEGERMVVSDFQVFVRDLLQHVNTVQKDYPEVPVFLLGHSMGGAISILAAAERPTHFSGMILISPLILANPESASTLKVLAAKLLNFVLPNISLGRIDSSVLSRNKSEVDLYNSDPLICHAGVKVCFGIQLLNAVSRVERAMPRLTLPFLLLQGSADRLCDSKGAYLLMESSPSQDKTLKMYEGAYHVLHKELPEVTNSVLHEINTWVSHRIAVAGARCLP
The test can be described thus: In vivo binding to MAGL assessed by ex vivo autoradiography in CD(SD) rats. Set-up: 10 μm sagittal brain sections from Wistar rats were used in in vitro autoradiography; from tissue; host or cells: rat brain (Wistar sections; CD(SD) rats dosed in vivo). To be noted: male CD(SD) rats, 1 mCi/kg i.v., 90 min post injection; blocked by a high dose of a MAGL inhibitor.
Experimental: Rats were sacrificed by decapitation 90 min after administration of the radioligand. Brains were rapidly removed and divided in two halves along their sagittal axis. The brain halves were frozen in dry ice for following cryosectioning. The hemisphere was placed in a cryostat and sagittal sections (10 μm thickness) were cut. Brain sections were mounted on Histobond glass slides (Marienfeld Laboratories Glassware, Germany), dried at room temperature and exposed, together with tritium microscales, to tritium-sensitive imaging plates (BAS-TR2025) for five days. The imaging plates were scanned in a Fujifilm BAS-5000 high resolution phosphor imager and the amount of [^3H]2 bound to the brain regions of interest was quantified with an MCID M2 image analysis system (Imaging Research Inc., St. Catherines, Ontario, Canada).

Test [4] has as its target T3, MAGL. As to the kind of experiment: In vitro autoradiography of 11C tracers on sagittal brain sections from Wistar rats.
Experimental: 10 μm sagittal brain sections from Wistar rats were used in in vitro autoradiography. On the day of experimentation, the slices were thawed on ice (10 min) and pre-conditioned in an aqueous buffer containing 30 mM 4-(2-hydroxyethyl)-1-piperazineethanesulfonic acid (HEPES), 1.2 mM MgCl2, 110 mM NaCl, 5 mM KCl, 2.5 mM CaCl2, and 1% fatty-acid-free bovine serum albumin (pH 7.4, 0° C.) for 10 min. The tissue samples were dried in air and subsequently incubated with radiotracer or a mixture of radiotracer and a cold MAGL inhibitor as a blocker at ambient temperature for 30 min. Upon completion of the incubation time, the slices were washed once for 3 min in the aqueous buffer described above, and twice for 2 min in the aqueous buffer described without 1% fatty-acid-free bovine serum albumin. After two quick dips in distilled water, the sections were dried in the air and exposed to a phosphor image plate for 1 h. The films were scanned by a BAS5000 reader (Fuji), and the data were analyzed using AIDA software, version 4.50.010 (Raytest Isotopenmessgeräte GmbH). For [^11C]1, 10 μM SAR127303 and 10 μg/mL 10 were used as blockers.

Each structure is given as a SMILES string.

For `Cc1ccc(CCC2CN(C(=O)N3CC[C@@H]4OCC(=O)N[C@@H]4C3)C2)c(F)c1` [Example [^3H]3, [^3H](4aR,8aS)-6-[3-[2-(2-Fluoro-4-methyl-phenyl)ethyl]azetidine-1-carbonyl]-4,4a,5,7,8,8a-hexahydropyrido[4,3-b][1,4]oxazin-3-one], on MAGL [1], the “binding on wt tissue samples (autoradiography)” value (shortened to “binding on wt tissue samples”) is recorded as “Selective binding to MAGL” and the “binding on MAGL ko tissue sections (autoradiography; selectivity, non-specific binding)” value was “absence of binding”.
Take `COc1ccc(CCC2CN(C(=O)N3CC[C@@H]4OCC(=O)N[C@@H]4C3)C2)c(C(F)(F)F)c1` [Example [^3H]4, [^3H](4aR,8aS)-6-[3-[2-[4-Methoxy-2-(trifluoromethyl)phenyl]ethyl]azetidine-1-carbonyl]-4,4a,5,7,8,8a-hexahydropyrido[4,3-b][1,4]oxazin-3-one]: on MAGL [1], the “binding on wt tissue samples” value was “Selective binding to MAGL” and the “binding on MAGL ko tissue sections (autoradiography; selectivity, non-specific binding)” value was “absence of binding”.
`O=C1CO[C@H]2CCN(C(=O)N3CC4(CC(Cc5c(F)cccc5F)C4)C3)C[C@H]2N1` [Example 6, (4aR,8aS)-6-[6-[(2,6-Difluorophenyl)methyl]-2-azaspiro[3.3]heptane-2-carbonyl]-4,4a,5,7,8,8a-hexahydropyrido[4,3-b][1,4]oxazin-3-one]: at MAGL [2], the IC50 (in general, the concentration that inhibits the measured activity by half) came out at 0.1 nM.
`Cc1ccc(/C(F)=C/C2CN(C(=O)N3CC[C@@H]4OCC(=O)N[C@@H]4C3)C2)cc1F` [Example 11, (4aR,8aS)-6-[3-[(Z)-2-Fluoro-2-(3-fluoro-4-methyl-phenyl)vinyl]azetidine-1-carbonyl]-4,4a,5,7,8,8a-hexahydropyrido[4,3-b][1,4]oxazin-3-one] displayed an IC50 on MAGL [2] of 90 nM.
`O=C1CO[C@H]2CCN(C(=O)N3CC(c4ccc(C5CCC5)cc4)C3)C[C@H]2N1` [Example 5, (4aR,8aS)-6-[3-(4-Cyclobutylphenyl)azetidine-1-carbonyl]-4,4a,5,7,8,8a-hexahydropyrido[4,3-b][1,4]oxazin-3-one] yielded an IC50 against MAGL [2] of 1 nM.
For `COc1cccc(F)c1CC1CC2(C1)CN(C(=O)N1CC[C@@H]3OCC(=O)N[C@@H]3C1)C2` [Example [^3H]2, [^3H](4aR,8aS)-6-[6-[(2-Fluoro-6-methoxy-phenyl)methyl]-2-azaspiro[3.3]heptane-2-carbonyl]-4,4a,5,7,8,8a-hexahydropyrido[4,3-b][1,4]oxazin-3-one], at MAGL [1], the “binding on wt tissue samples” value is “Selective binding to MAGL” and the “binding on MAGL ko tissue sections (autoradiography; selectivity, non-specific binding)” value is “absence of binding”. For the same molecule, at MAGL [3], the “in vivo binding to MAGL in brain (ex vivo autoradiography)” value is “Selective and specific binding to MAGL”.
`COc1ccccc1CC1CC2(C1)CN(C(=O)N1CC[C@@H]3OCC(=O)N[C@@H]3C1)C2` [Example 7, (4aR,8aS)-6-[6-[(2-Methoxyphenyl)methyl]-2-azaspiro[3.3]heptane-2-carbonyl]-4,4a,5,7,8,8a-hexahydropyrido[4,3-b][1,4]oxazin-3-one] gave a half-maximal inhibitory concentration (IC50) against MAGL [2] of 0.2 nM.
For the molecule `COc1ccc(CCC2CN(C(=O)N3CC[C@@H]4OCC(=O)N[C@@H]4C3)C2)c(C(F)(F)F)c1` [Example 4, (4aR,8aS)-6-[3-[2-[4-Methoxy-2-(trifluoromethyl)phenyl]ethyl]azetidine-1-carbonyl]-4,4a,5,7,8,8a-hexahydropyrido[4,3-b][1,4]oxazin-3-one], at MAGL [2], the IC50 was 6 nM.
Regarding `O=C1CO[C@H]2CCN(C(=O)N3CC(c4ccc(C5CCC5)cc4)C3)C[C@H]2N1` [Example [^11C]5, [^11C](4aR,8aS)-6-[3-(4-Cyclobutylphenyl)azetidine-1-carbonyl]-4,4a,5,7,8,8a-hexahydropyrido[4,3-b][1,4]oxazin-3-one], the “binding to MAGL on sagittal rat brain sections (autoradiography)” value on MAGL [4] (Wistar rat brain sections, radiotracer alone, 30 min) is “selectively bind to MAGL”. In addition, at MAGL [4] (co-incubation with blockers (10 μM SAR127303 and 10 μg/mL 10 for [11C]1; 10 μM SAR127303 and 10 μM PF-06795071 for [11C]5)), the “blocking of binding by cold MAGL inhibitors” value is reported as “binding can be blocked”.
With `COc1cccc(F)c1CC1CC2(C1)CN(C(=O)N1CC[C@@H]3OCC(=O)N[C@@H]3C1)C2` [Example 2, (4aR,8aS)-6-[6-[(2-Fluoro-6-methoxy-phenyl)methyl]-2-azaspiro[3.3]heptane-2-carbonyl]-4,4a,5,7,8,8a-hexahydropyrido[4,3-b][1,4]oxazin-3-one], at MAGL [2], the IC50 came to 0.07 nM.
Same read-out and setting: the figure for `Cc1ccc(CCC2CN(C(=O)N3CC[C@@H]4OCC(=O)N[C@@H]4C3)C2)c(F)c1` [Example 3, (4aR,8aS)-6-[3-[2-(2-Fluoro-4-methyl-phenyl)ethyl]azetidine-1-carbonyl]-4,4a,5,7,8,8a-hexahydropyrido[4,3-b][1,4]oxazin-3-one] is 5 nM.
As for `Cc1ccc(C(F)=CC2CN(C(=O)N3CC[C@@H]4OCC(=O)N[C@@H]4C3)C2)cc1F` (mixture of isomers) [Example 10, (4aR,8aS)-6-[3-[2-Fluoro-2-(3-fluoro-4-methyl-phenyl)vinyl]azetidine-1-carbonyl]-4,4a,5,7,8,8a-hexahydropyrido[4,3-b][1,4]oxazin-3-one], it took 20 nM to reach half-maximal inhibition against MAGL [2] (IC50).
`Cc1ccc(/C(F)=C\C2CN(C(=O)N3CC[C@@H]4OCC(=O)N[C@@H]4C3)C2)cc1F` [Example 12, (4aR,8aS)-6-[3-[(E)-2-Fluoro-2-(3-fluoro-4-methyl-phenyl)vinyl]azetidine-1-carbonyl]-4,4a,5,7,8,8a-hexahydropyrido[4,3-b][1,4]oxazin-3-one] yielded an IC50 at MAGL [2] of 40 nM.
With `CC(C)COc1ccc(C2CN(C(=O)N3CC[C@@H]4OCC(=O)N[C@@H]4C3)C2)cc1` [Example 9, (4aR,8aS)-6-[3-(4-isobutoxyphenyl)azetidine-1-carbonyl]-4,4a,5,7,8,8a-hexahydropyrido[4,3-b][1,4]oxazin-3-one], 1 nM corresponded to half-maximal inhibition against MAGL [2] (IC50).
